Results: ChEMBL document CHEMBL5727895, “Nitrogen-containing heteroaryl compound and pharmaceutical use thereof” (2020)
pIC50: −log10 of the molar value.

Assay: Evaluation of GLUT9 Inhibitory Activity: Uricase/Hyper transiently-transfected human GLUT9 stably expressing cells or mock cells (blank) were seeded in a 96 well plate (Corning) at 1.6×10^5 cells/well, and cultured overnight at 37° C., 5% CO2. D-MEM/high glucose (Wako Pure Chemical Industries, Ltd.) containing 10% Fetal Bovine Serum (Lifetechnology) and 100 units/ml penicillin/100 μg/ml streptomycin (GIBCO) was used as a medium. High K− buffer (129.8 mM KCl, 1.2 mM KH2PO4, 1.2 mM MgSO4.7H2O, 1.3 mM CaCl2. 2H2O, 25 mM HEPES, pH 7.4 with 1 M Tris) and the medium were mixed in equal amount to prepare Assay Buffer. The medium in each well was removed, and the test compound solution (final 1% DMSO) diluted with Assay Buffer was added thereto at 50 μl/well, and the mixture was left stand at room temperature for 30 to 60 min. For the solvent control and blank, Assay Buffer containing DMSO alone was added at 50 μl/well, and the mixture was left stand at room temperature for 30 to 60 min. In addition, uric acid solution (containing [14C]uric acid as a tracer) diluted with Assay Buffer was added to each well at 15 μl/well (final 300 μM uric acid), and the uptake reaction was performed at room temperature for 6 min. After the completion of the reaction, the cells were washed three times with ice-cooled Wash Buffer (Hank's Balanced Salt Solution containing 0.01% Bovine Serum Albumin) at 150 μl/well, and 0.1N aqueous NaOH solution was added thereto at 25 μl/well to dissolve the cell. MicroScint-20 (Perkin-Elmer) was added thereto at 150 μl/well, the plate was shaked, and CPM of [14C] was measured by TopCount NXT (Perkin-Elmer).Data was obtained by deducting average of CPM in blank well from average of CPM in each treated well. The inhibitory rate of the test compound in each concentration was calculated from the following formula: [(A−B)/A]×100, A is data of solvent control, B is data of test compound treatment.

`COCCCCc1cnc(-c2ccc(C(F)(F)F)cc2)c(-c2ccc(C(=O)O)cc2)n1` and `CCCCc1cnc(-c2ccc(OC)cc2)c(-c2ccc(C(=O)O)cc2)n1` are within 0.2 log units of each other in pIC50: 6.80 for the first, 6.85 for the second.

Going from `CCCCc1cnc(-c2ccc(C)cc2)c(-c2ccc(C(=O)O)cc2)c1` to `CCCCCc1cnc(-c2ccc(OC)cc2)c(-c2ccc(C(=O)O)cc2)c1`, the pIC50 rises from 6.47 to 7.30 (0.83 log units). The second is the more potent here.

`CCCc1cnc(-c2cc(F)c(OC)c(F)c2)c(-c2ccc(C(=O)O)cc2)c1` and `CCCCc1cnc(-c2cc(F)c(OC)c(F)c2)c(-c2ccc(C(=O)O)cc2)c1` are within 0.2 log units of each other in pIC50: 7.14 for the first, 7.24 for the second.

Compared with `COc1ccc(-c2ncc(CC3CCC3)cc2-c2ccc(C(=O)O)cc2)cc1`, `COc1ccc(-c2ncc(CC3CCCC3)cc2-c2ccc(C(=O)O)cc2)cc1` is 0.65 log units lower in pIC50: 6.72 for the first, 6.07 for the second.

`CCCCc1cnc(-c2ccc(OC)cc2)c(-c2ccc(C(=O)O)cc2)c1F` and `CCCc1cnc(-c2ccc(OC)cc2)c(-c2ccc(C(=O)O)cc2)c1` are within 0.2 log units of each other in pIC50: 7.08 for the first, 7.05 for the second.

Compared with `CCCCc1cnc(-c2ccc(OC)c(F)c2)c(-c2ccc(C(=O)O)cc2)c1`, `CCCCc1cnc(-c2ccc(CC)c(C)c2)c(-c2ccc(C(=O)O)cc2)n1` is 0.23 log units lower in pIC50: 7.05 for the first, 6.82 for the second. The first is the more potent here.

`COCCCc1cnc(-c2ccc(OC)cc2)c(-c2ccc(CCC(=O)O)cc2)n1` showed a pIC50 of 7.04.
